Results taken from US20250195521A1 (Revolution Medicines, Inc., priority 2020, published 2025).
Where two headings read alike, the source gives them in different places.

Experiments:
[1] = test system: NCI-H358 cells (K-Ras G12C); assay: CellTiter-Glo cell viability, NCI-H358; assay type: cell-based, human; conditions: Homo sapiens, NCI-H358, 120 h, read-out: H358 Cell Viability IC50
Summary of the method: (§1)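 Viability read by luminescence on day 5 after direct compound addition to cells, following ~30 min room-temperature equilibration. Values expressed as percent of mean DMSO signal, curves fitted with a four-parameter logistic model.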

[2] = test system: Capan-1 cells (K-Ras G12V); assay: CellTiter-Glo cell viability, Capan-1; assay type: cell-based, human; conditions: Homo sapiens, CAPAN-1, 120 h, read-out: Capan-1 Cell Viability IC50
Summary of the method: as §1

KRAS G12V = KRAS G12V (Homo sapiens (Human), UniProt P01116+P62937, G12V); assay: Ras-Raf disruption/FRET/MOA assay (BRAF RBD, Cyclophilin A); assay type: biochemical; conditions: read-out: KRAS G12V FRET IC50
Summary of the method: (§2)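 First, 25 μM Cyclophilin A, 12.5 nM His6-Ras-GMPPNP and 50 nM GST-BRAF RBD are mixed with diluted compound at pH 7.3. Next, 3 h at 25° C. Then 10 nM anti-His Eu-W1024 plus 50 nM anti-GST allophycocyanin for 1.5 h before TR-FRET reading.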

KRAS G13C = KRAS G13C (Homo sapiens (Human), UniProt P01116+P62937, G13C); assay: as above; assay type: biochemical; conditions: read-out: KRAS G13C FRET IC50
Summary of the method: as §2

NRAS Q61K = NRAS Q61K (Homo sapiens (Human), UniProt P01111+P62937, Q61K); assay: as above; assay type: biochemical
Summary of the method: (§3)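 Measured: compound-facilitated Cyclophilin A:Ras complex blocking RAF RBD binding. Conditions: 12.5 nM Ras-GMPPNP, 50 nM BRAF RBD, 25 μM CypA, 3 h plus 1.5 h detection. Output: IC50 from TR-FRET ratio.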

KRAS WT = KRAS WT (Homo sapiens (Human), UniProt P01116+P62937); assay: as above; assay type: biochemical; conditions: read-out: KRAS WT FRET data IC50
Summary of the method: as §2

KRAS Q61H = KRAS Q61H (Homo sapiens (Human), UniProt P01116+P62937, Q61H); assay: as above; assay type: biochemical
Summary of the method: as §2

KRAS G12S = KRAS G12S (Homo sapiens (Human), UniProt P01116+P62937, G12S); assay: as above; assay type: biochemical; conditions: read-out: KRAS G12S FRET IC50
Summary of the method: as §2

NRAS G12C = NRAS G12C (Homo sapiens (Human), UniProt P01111+P62937, G12C); assay: as above; assay type: biochemical; conditions: read-out: NRAS G12C FRET data IC50
Summary of the method: as §3

KRAS G13D = KRAS G13D (Homo sapiens (Human), UniProt P01116+P62937, G13D); assay: as above; assay type: biochemical; conditions: read-out: KRAS G13D FRET data IC50
Summary of the method: as §2

KRAS G12C = KRAS G12C (Homo sapiens (Human), UniProt P01116+P62937, G12C); assay: as above; assay type: biochemical; conditions: read-out: KRAS G12C FRET IC50
Summary of the method: as §2

NRAS Q61R = NRAS Q61R (Homo sapiens (Human), UniProt P01111+P62937, Q61R); assay: as above; assay type: biochemical
Summary of the method: as §3

NRAS WT = NRAS WT (Homo sapiens (Human), UniProt P01111+P62937); assay: as above; assay type: biochemical
Summary of the method: as §3

KRAS G12D = KRAS G12D (Homo sapiens (Human), UniProt P01116+P62937, G12D); assay: as above; assay type: biochemical; conditions: read-out: KRAS G12D FRET IC50
Summary of the method: as §2

Sequence of KRAS G13D (P01116 other isoform, or with tags, fused parts or gaps G13D): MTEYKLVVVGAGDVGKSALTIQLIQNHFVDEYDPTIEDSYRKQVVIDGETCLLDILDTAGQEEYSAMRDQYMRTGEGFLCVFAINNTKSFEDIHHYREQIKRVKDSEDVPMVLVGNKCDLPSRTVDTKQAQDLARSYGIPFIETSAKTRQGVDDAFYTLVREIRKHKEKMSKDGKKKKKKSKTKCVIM
Sequence of KRAS G13D (P62937 whole entry): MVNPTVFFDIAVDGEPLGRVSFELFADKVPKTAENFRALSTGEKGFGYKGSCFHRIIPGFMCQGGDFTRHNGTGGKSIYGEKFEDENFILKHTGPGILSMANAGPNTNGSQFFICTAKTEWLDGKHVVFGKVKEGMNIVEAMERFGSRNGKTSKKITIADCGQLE
Sequence of NRAS WT (P01111 whole entry): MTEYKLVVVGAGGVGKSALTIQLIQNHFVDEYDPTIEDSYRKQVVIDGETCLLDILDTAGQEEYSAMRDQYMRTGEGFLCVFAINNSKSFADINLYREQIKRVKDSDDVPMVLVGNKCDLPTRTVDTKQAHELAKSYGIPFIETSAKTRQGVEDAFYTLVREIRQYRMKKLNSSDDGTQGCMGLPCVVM
Sequence of NRAS WT (P62937 whole entry): as the sequence (P62937 whole entry) above
Sequence of KRAS G13C (P01116 other isoform, or with tags, fused parts or gaps G13C): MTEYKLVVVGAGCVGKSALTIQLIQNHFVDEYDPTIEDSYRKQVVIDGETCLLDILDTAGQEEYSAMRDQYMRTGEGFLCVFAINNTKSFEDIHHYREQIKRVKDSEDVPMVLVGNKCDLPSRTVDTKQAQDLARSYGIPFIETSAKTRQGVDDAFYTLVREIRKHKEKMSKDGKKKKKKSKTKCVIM
Sequence of KRAS G13C (P62937 whole entry): as the sequence (P62937 whole entry) above
Sequence of KRAS G12C (P01116-2 other isoform, or with tags, fused parts or gaps G12C): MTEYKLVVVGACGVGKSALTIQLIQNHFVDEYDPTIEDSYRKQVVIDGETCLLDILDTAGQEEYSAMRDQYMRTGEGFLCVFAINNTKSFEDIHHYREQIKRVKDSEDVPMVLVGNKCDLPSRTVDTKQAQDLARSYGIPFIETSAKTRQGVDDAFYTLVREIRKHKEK
Sequence of KRAS G12C (P62937 whole entry): as the sequence (P62937 whole entry) above
Sequence of KRAS G12V (P01116 other isoform, or with tags, fused parts or gaps G12V): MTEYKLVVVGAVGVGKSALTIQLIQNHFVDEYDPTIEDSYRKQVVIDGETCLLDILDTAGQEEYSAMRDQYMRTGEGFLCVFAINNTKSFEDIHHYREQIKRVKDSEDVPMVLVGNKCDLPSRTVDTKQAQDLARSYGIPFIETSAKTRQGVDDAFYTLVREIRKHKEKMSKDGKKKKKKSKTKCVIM
Sequence of KRAS G12V (P62937 whole entry): as the sequence (P62937 whole entry) above
Sequence of NRAS Q61R (P01111 whole entry Q61R): as the sequence (P01111 whole entry) above, with Q61R counted along it
Sequence of NRAS Q61R (P62937 whole entry): as the sequence (P62937 whole entry) above
Sequence of KRAS G12S (P01116 other isoform, or with tags, fused parts or gaps G12S): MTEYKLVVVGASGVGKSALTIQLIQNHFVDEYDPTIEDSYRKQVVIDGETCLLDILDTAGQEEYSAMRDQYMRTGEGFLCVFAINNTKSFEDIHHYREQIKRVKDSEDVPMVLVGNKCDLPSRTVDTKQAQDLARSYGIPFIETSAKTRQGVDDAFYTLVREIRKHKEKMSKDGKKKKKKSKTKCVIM
Sequence of KRAS G12S (P62937 whole entry): as the sequence (P62937 whole entry) above
Sequence of NRAS Q61K (P01111 whole entry Q61K): as the sequence (P01111 whole entry) above, with Q61K counted along it
Sequence of NRAS Q61K (P62937 whole entry): as the sequence (P62937 whole entry) above
Sequence of KRAS Q61H (P01116 other isoform, or with tags, fused parts or gaps Q61H): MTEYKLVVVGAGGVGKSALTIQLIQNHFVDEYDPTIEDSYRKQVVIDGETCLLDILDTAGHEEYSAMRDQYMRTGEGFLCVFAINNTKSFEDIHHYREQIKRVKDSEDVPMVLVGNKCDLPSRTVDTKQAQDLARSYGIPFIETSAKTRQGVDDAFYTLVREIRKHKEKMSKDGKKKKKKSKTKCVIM
Sequence of KRAS Q61H (P62937 whole entry): as the sequence (P62937 whole entry) above
Sequence of KRAS WT (P01116 other isoform, or with tags, fused parts or gaps): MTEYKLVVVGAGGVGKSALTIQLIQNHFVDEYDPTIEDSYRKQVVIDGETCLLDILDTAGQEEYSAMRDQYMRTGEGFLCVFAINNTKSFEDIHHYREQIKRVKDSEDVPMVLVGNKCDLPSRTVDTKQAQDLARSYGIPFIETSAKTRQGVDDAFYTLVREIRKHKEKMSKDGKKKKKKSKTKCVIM
Sequence of KRAS WT (P62937 whole entry): as the sequence (P62937 whole entry) above
Sequence of KRAS G12D (P01116 other isoform, or with tags, fused parts or gaps G12D): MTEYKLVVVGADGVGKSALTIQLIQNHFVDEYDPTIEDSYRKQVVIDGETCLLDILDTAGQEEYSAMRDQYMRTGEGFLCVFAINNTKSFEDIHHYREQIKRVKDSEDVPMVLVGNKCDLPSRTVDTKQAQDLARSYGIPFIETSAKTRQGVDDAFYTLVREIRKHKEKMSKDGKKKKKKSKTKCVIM
Sequence of KRAS G12D (P62937 whole entry): as the sequence (P62937 whole entry) above
Sequence of NRAS G12C (P01111 whole entry G12C): as the sequence (P01111 whole entry) above, with G12C counted along it
Sequence of NRAS G12C (P62937 whole entry): as the sequence (P62937 whole entry) above

Row | Structure (SMILES) | IC50 ([1]; K-Ras G12C, 5-day treatment) | IC50 (KRAS G12V) | IC50 (KRAS G13C) | IC50 (NRAS Q61K) | IC50 (KRAS WT) | IC50 (KRAS Q61H) | IC50 (KRAS G12S) | IC50 (NRAS G12C) | IC50 (KRAS G13D) | IC50 (KRAS G12C) | IC50 (NRAS Q61R) | IC50 (NRAS WT) | IC50 (KRAS G12D) | IC50 ([2]; K-Ras G12V, 5-day treatment) | IC50 [1] | IC50 [2]
1 | CCn1c(-c2cccnc2[C@H](C)OC)c2c3cc(ccc31)-c1csc(n1)C[C@H](NC(=O)[C@H](C(C)C)N(C)C(=O)N(C)[C@@H]1CCN(C)C1)C(=O)N1CCC[C@H](N1)C(=O)OCC(C)(C)C2 [Compound A564] | 10 to 100 nM | 100 to 1000 nM | 100 to 1000 nM | 100 to 1000 nM | 100 to 1000 nM | 10 to 100 nM | 100 to 1000 nM | 100 to 1000 nM | 100 to 1000 nM | 100 to 1000 nM | 100 to 1000 nM | 100 to 1000 nM | 100 to 1000 nM | 100 to 1000 nM |  | 
2 | CCn1c(-c2cccnc2[C@H](C)OC)c2c3cc(ccc31)-c1cc(cc(C(F)F)c1)C[C@H](NC(=O)[C@H](C(C)C)N(C)C(=O)[C@@H]1OCC[C@@H]1c1ccccc1)C(=O)N1CCC[C@H](N1)C(=O)OCC(C)(C)C2 [Compound A592] |  | 1000 to 10000 nM | 100 to 1000 nM | 100 to 1000 nM | 1000 to 10000 nM | 100 to 1000 nM | 1000 to 10000 nM | 100 to 1000 nM | 1000 to 10000 nM | 100 to 1000 nM | 1000 to 10000 nM | 1000 to 10000 nM | 1000 to 10000 nM |  | 100 to 1000 nM | 1000 to 10000 nM
3 | CCn1c(-c2cccnc2[C@H](C)OC)c2c3cc(ccc31)-c1cc(O)cc(c1)C[C@H](NC(=O)[C@H](C(C)C)N(C)C(=O)[C@@]1(F)CCN(C(=O)OC)C1)C(=O)N1CCC[C@H](N1)C(=O)OCC(C)(C)C2 [Compound A615] | 10 to 100 nM | 10 to 100 nM | 10 to 100 nM | 100 to 1000 nM | 10 to 100 nM | 10 to 100 nM | 10 to 100 nM | 10 to 100 nM | 10 to 100 nM | 10 to 100 nM | 100 to 1000 nM | 10 to 100 nM | 100 to 1000 nM | 10 to 100 nM |  | 

Second part, led by results:

Row | IC50 ([1]; K-Ras G12C, 5-day treatment) | IC50 (KRAS G12V) | IC50 (KRAS G13C) | IC50 (NRAS Q61K) | IC50 (KRAS WT) | IC50 (KRAS Q61H) | IC50 (KRAS G12S) | IC50 (NRAS G12C) | IC50 (KRAS G13D) | IC50 (KRAS G12C) | IC50 (NRAS Q61R) | IC50 (NRAS WT) | IC50 (KRAS G12D) | Structure (SMILES) | IC50 ([2]; K-Ras G12V, 5-day treatment) | IC50 [1] | IC50 [2]
4 | < 10 nM | 100 to 1000 nM | 100 to 1000 nM | 10 to 100 nM | 10 to 100 nM | 10 to 100 nM | 10 to 100 nM | 10 to 100 nM | 100 to 1000 nM | 10 to 100 nM | 10 to 100 nM | 10 to 100 nM | 100 to 1000 nM | CCn1c(-c2cccnc2[C@H](C)OC)c2c3cc(ccc31)-c1csc(n1)C[C@H](NC(=O)[C@H](C(C)C)N1CCC3(COC3)C1)C(=O)N1CCC[C@H](N1)C(=O)OCC(C)(C)C2 [Compound A561] | 10 to 100 nM |  | 
5 | 10 to 100 nM | 100 to 1000 nM | 100 to 1000 nM | 100 to 1000 nM | 100 to 1000 nM | 10 to 100 nM | 100 to 1000 nM | 100 to 1000 nM | 100 to 1000 nM | 100 to 1000 nM | 100 to 1000 nM | 100 to 1000 nM | 100 to 1000 nM | CCn1c(-c2cccnc2[C@H](C)OC)c2c3cc(ccc31)-c1csc(n1)C[C@H](NC(=O)[C@H](C(C)C)N(C)C(=O)N1CCCC3(CN(C)C3)C1)C(=O)N1CCC[C@H](N1)C(=O)OCC(C)(C)C2 [Compound A589] | 100 to 1000 nM |  | 
6 | 100 to 1000 nM | 1000 to 10000 nM | 100 to 1000 nM | 100 to 1000 nM | 100 to 1000 nM | 100 to 1000 nM | 100 to 1000 nM | 100 to 1000 nM | 100 to 1000 nM | 100 to 1000 nM | 100 to 1000 nM | 100 to 1000 nM | 100 to 1000 nM | CCn1c(-c2cccnc2[C@H](C)OC)c2c3cc(ccc31)-c1csc(n1)C[C@H](NC(=O)[C@H](C(C)C)N(C)C(=O)N(C)C1CN(C)C1)C(=O)N1CCC[C@H](N1)C(=O)OCC(C)(C)C2 [Compound A611] | 100 to 1000 nM |  | 
